This is an account of results in US9974771B2 (priority 2016, dated 2018).

Read-outs that look alike come from different tables or passages of the source.

The test system of series [1] is PrP^Sc in ScMEFs infected with prion strains 22L, Me7 or RML. The format is cell-based, mouse. The conditions noted are these: AR-12 3 μM, 72 hours, ScMEF strains 22L, FIG. 4A.
In series [2] the test system is LC3-II. The series is classed as cell-based, mouse.
The test system of series [3] is PrP^Sc in Atg5-KO ScN2a cells (strain 22L). The series is classed as cell-based, mouse.
The test system of series [4] is PrP^Sc in persistently prion (strain 22L) infected ScCAD5 cells. The format is cell-based, mouse. The conditions noted are these: AR-12 1-5 μM, 72 hours, ScCAD5 22L; FIG. 3A.
Series [5] deals with PrP^Sc in persistently prion (strain 22L) infected ScN2a cells. The series is classed as cell-based, mouse.
Series [6] concerns LC3-II. The format is cell-based, mouse. The source holds these as a separate data set.

Turning to `NCC(=O)Nc1ccc(-n2nc(C(F)(F)F)cc2-c2ccc3c(ccc4ccccc43)c2)cc1` [AR-12, 2-amino-N-(4-(5-(phenanthren-2-yl)-3-(trifluoromethyl)-1H-pyrazol-1-yl)phenyl)acetamide], the “XTT toxicity at concentrations used” value in the series with ScCAD5 cells, with ScN2a cells and in the series with ScMEF cells was “non-toxic concentrations” each time. The “PrP^Sc (+PK)” value in series [1] is given as “strongly reduced”. Also, the “LC3-II induction, comparison of cell lines” value in the series with LC3-II [2] was “lowest induction was found in CAD5 cells”. Moreover, the LC3-II levels result in the series on LC3-II [2] is “time dependent and pronounced increase in LC3-II levels”. Besides, the “reduction of PrP^Sc (+PK)” value in [3] is “about 50%”; in series [5] (AR-12 3 μM, 3 days (72 hours), ScN2a 22L, vs DMSO, FIG. 2A), 100%; in [5] (AR-12 3 μM, 72 hours, wild-type ScN2a cells, FIG. 8B), at least 90%. Further, the “PrP^Sc levels (+PK)” value in [4] is reported as “reduced, although slightly less than in ScN2a cells”. In addition, in the series on LC3-II [6], the LC3-II induction entry is “about 2 fold”.

For the compound “bafilomycin A1 [BA1, reference compound]”, the LC3-II levels entry in the series with LC3-II [2] is recorded as “highest expression level of LC3-II”.

Consider `NCCCC[C@H](N)C(=O)Nc1ccc(-n2nc(C(F)(F)F)cc2-c2ccc3c(ccc4ccccc43)c2)cc1` [AR-14], for which the “XTT toxicity at concentrations used” value with ScN2a cells is “non-toxic concentrations”. Further, the “LC3-II induction, comparison of cell lines” value in the series on LC3-II [2] is on record as “lowest induction was found in CAD5 cells”. Further, in the series on LC3-II [2], the LC3-II levels result is “time dependent and pronounced increase in LC3-II levels”. For the same compound, the “reduction of PrP^Sc (+PK)” value in [3] is recorded as “about 50%”; in [5] (AR-14 2 μM, 72 hours, wild-type ScN2a cells, FIG. 8C) it was 100%; in series [5] (AR-14 at a concentration of 2, 3 days (72 hours), ScN2a 22L, FIG. 5A), 100%. In series [5] (AR-14 tested at 0.5, 0.75 and 1.0 μM, 72 hours, ScN2a 22L, FIG. 5C), the “concentration at which already effective in reducing PrP^Sc” value is 0.75 µM.
